Values quoted from earlier work as cited in patent US8828453B2, “Herbal-based compositions for alleviating symptoms associated with autism” (priority 2010, dated 2014).

System: newborn murine brain

CCCCC/C=C\C/C=C\C/C=C\C/C=C\CCCC(=O)NCCO [anandamide]
protection against excitotoxic damage: protected the newborn murine brain against excitotoxic damage
